Experimental data published in patent US20220395496A1 (Hoffmann-La Roche Inc., priority 2019, published 2022).

Tests used:
human TLR7 = target: T1, human TLR7 (Homo sapiens, UniProt Q9NYK1); assay: HEK293-Blue-hTLR-7 cells assay (SEAP reporter, R848 stimulation); type: cell-based; settings: HEK293-Blue-hTLR7 cells, R848, 20 hrs; lowest tested concentration 0.0032
T1 sequence (Q9NYK1 27-1049): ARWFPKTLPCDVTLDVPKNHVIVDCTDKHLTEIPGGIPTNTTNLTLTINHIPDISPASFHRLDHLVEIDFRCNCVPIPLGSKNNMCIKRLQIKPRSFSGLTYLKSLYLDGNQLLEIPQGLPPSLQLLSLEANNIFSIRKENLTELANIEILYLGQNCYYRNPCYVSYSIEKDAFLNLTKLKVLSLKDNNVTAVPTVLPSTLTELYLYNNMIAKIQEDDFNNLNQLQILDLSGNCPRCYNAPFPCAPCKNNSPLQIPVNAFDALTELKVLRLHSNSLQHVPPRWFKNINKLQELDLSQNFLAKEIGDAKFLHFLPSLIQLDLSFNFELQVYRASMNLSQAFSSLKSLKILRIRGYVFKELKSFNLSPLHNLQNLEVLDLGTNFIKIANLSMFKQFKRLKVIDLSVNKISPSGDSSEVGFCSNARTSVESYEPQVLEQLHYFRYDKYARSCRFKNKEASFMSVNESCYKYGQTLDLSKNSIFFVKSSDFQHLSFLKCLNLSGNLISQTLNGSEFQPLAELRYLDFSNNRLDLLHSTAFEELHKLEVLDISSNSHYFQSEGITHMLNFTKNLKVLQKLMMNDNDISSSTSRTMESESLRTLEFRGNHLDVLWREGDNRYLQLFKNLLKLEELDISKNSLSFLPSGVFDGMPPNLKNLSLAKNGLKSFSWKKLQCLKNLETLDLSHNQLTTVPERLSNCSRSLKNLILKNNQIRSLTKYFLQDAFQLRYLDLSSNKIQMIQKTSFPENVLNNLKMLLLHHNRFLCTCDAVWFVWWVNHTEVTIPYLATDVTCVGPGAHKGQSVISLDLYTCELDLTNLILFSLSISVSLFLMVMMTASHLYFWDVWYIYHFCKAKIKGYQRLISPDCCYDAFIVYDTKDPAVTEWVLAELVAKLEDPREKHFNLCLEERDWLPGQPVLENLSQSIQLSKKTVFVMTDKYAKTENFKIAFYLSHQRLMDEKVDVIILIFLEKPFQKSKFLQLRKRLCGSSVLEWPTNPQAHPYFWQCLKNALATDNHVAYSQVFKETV
Procedure: The following tests were carried out in order to determine the activity of the compounds of this invention in HEK293-Blue-hTLR-7/8/9 cells assay.
HEK293-Blue-hTLR-7 Cells Assay:
A stable HEK293-Blue-hTLR-7 cell line was purchased from InvivoGen (Cat. #: hkb-htlr7, San Diego, Calif., USA). These cells were originally designed for studying the stimulation of human TLR7 by monitoring the activation of NF-κB. A SEAP (secreted embryonic alkaline phosphatase) reporter gene was placed under the control of the IFN-β minimal promoter fused to five NF-κB and AP-1-binding sites. The SEAP was induced by activating NF-κB and AP-1 via stimulating HEK-Blue hTLR7 cells with TLR7 ligands. Therefore the reporter expression was declined by TLR7 antagonist under the stimulation of a ligand, such as R848 (Resiquimod), for incubation of 20 hrs. The cell culture supernatant SEAP reporter activity was determined using QUANTI-Blue™ kit (Cat. #: rep-qb1, Invivogen, San Diego, Calif., USA) at a wavelength of 640 nm, a detection medium that turns purple or blue in the presence of alkaline phosphatase.
HEK293-Blue-hTLR7 cells were incubated at a density of 250,000˜450,000 cells/mL in a volume of 170 μL in a 96-well plate in Dulbecco's Modified Eagle's medium (DMEM) containing 4.5 g/L glucose, 50 U/mL penicillin, […], […], 2 mM L-glutamine, 10% (v/v) heat-inactivated fetal bovine serum with addition of 20 μL test compound in a serial dilution in the presence of final DMSO at 1% and 10 μL of 20 uM R848 in above DMEM, perform incubation under 37° C. in a CO2 incubator for 20 hrs. Then 20 μL of the supernatant from each well was incubated with 180 μL Quanti-blue substrate solution at 37° C. for 2 hrs and the absorbance was read at 620-655 nm using a spectrophotometer. The signalling pathway that TLR7 activation leads to downstream NF-κB activation has been widely accepted, and therefore similar reporter assay was modified for evaluating TLR7 antagonist.

[1] = Human microsome stability assay; type: in vitro ADME; settings: human liver microsomes, 1 μM test compound, 0.5 mg/mL protein, 37° C., pH 7.4
Procedure: Human Microsome Stability Assay
The human microsomal stability assay is used for early assessment of metabolic stability of a test compound in human liver microsomes. Compounds with high metabolic stability are considered to be desirable as they can provide favorable in vivo PK profiles and thus sufficient exposure in the targeted tissues or organs
Human liver microsomes (Cat. NO.: 452117, Corning, USA; Cat. NO.: H2610, Xenotech, USA) were preincubated with test compound for 10 minutes at 37° C. in 100 mM potassium phosphate buffer, pH 7.4. The reactions were initiated by adding NADPH regenerating system. The final incubation mixtures contained 1 μM test compound, 0.5 mg/mL liver microsomal protein, 1 mM MgCl2, 1 mM NADP, 1 unit/mL isocitric dehydrogenase and 6 mM isocitric acid in 100 mM potassium phosphate buffer, pH 7.4. After incubation times of 0, 3, 6, 9, 15 and 30 minutes at 37° C., 300 μL of cold acetonitrile (including internal standard) was added to 100 μL incubation mixture to terminate the reaction. Following precipitation and centrifugation, the amount of compound remaining in the samples were determined by LC-MS/MS. Controls of no NADPH regenerating system at zero and 30 minutes were also prepared and analyzed.

Row | SMILES | IC50 (human TLR7) [µM] | HLM [1] [L/h/kg]
1 | C[C@H]1C[C@@H](NCc2ccc(N3CCNCC3)cc2)CN(c2ccc(C#N)n3nccc23)C1 [Example 21, 4-[(3S,5R)-3-methyl-5-[(4-piperazin-1-ylphenyl)methylamino]-1-piperidyl]pyrazolo[1,5-a]pyridine-7-carbonitrile] | 0.063 | 0.372
2 | C[C@H]1C[C@@H](N2Cc3ccc(N4CCNCC4)cc3C2)CN(c2ccc(C#N)c3ncccc23)C1 [Example 12, 5-[(3S,5R)-3-methyl-5-(5-piperazin-1-ylisoindolin-2-yl)-1-piperidyl]quinoline-8-carbonitrile] | 0.007 | 0.372
3 | C[C@H]1C[C@@H](N2Cc3ccccc3C2)CN(c2ccc(C#N)c3ncccc23)C1 [Example R2, reference compound] | 0.048 | 1.1
4 | C[C@H]1C[C@@H](NCc2ccccc2)CN(c2ccc(C#N)c3ncccc23)C1 [Example R1, reference compound] | 0.089 | 1.04

More lines, now with the values ahead:

Row | IC50 (human TLR7) [µM] | HLM [1] [L/h/kg] | SMILES
5 | 0.007 | 0.408 | C[C@H]1C[C@@H](NCc2cnc(N3CCNCC3)nc2)CN(c2ccc(C#N)c3ncccc23)C1 [Example 17, 5-[(3S,5R)-3-methyl-5-[(2-piperazin-1-ylpyrimidin-5-yl)methylamino]-1-piperidyl]quinoline-8-carbonitrile]
6 | 0.007 | 0.444 | C[C@H]1C[C@@H](NCc2ccc(N3CCNCC3)nc2)CN(c2ccc(C#N)c3ncccc23)C1 [Example 10]
7 | 0.016 | 0.438 | C[C@H]1C[C@@H](NCc2ccc(N3CCNCC3)cc2)CN(c2ccc(C#N)c3ncccc23)C1 [Example 1, 5-[(3S,5R)-3-methyl-5-[(4-piperazin-1-ylphenyl)methylamino]1-piperidyl]quinoline-8-carbonitrile]
8 | 0.032 | 0.42 | C[C@H]1C[C@@H](NCc2ccc(C3CCNCC3)cc2)CN(c2ccc(C#N)c3ncccc23)C1 [Example 2, 5-[(3S,5R)-3-methyl-5-[[4-(4-piperidyl)phenyl]methylamino]-1-piperidyl]quinoline-8-carbonitrile]
9 | 0.023 | 0.438 | C[C@H]1C[C@@H](N2Cc3cc(N4CCNCC4)cnc3C2)CN(c2ccc(C#N)c3ncccc23)C1 [Example 23, 5-[(3S,5R)-3-methyl-5-(3-piperazin-1-yl-5,7-dihydropyrrolo[3,4-b]pyridin-6-yl)-1-piperidyl]quinoline-8-carbonitrile]
